For the data set the following is noted: Crystal; DTA.

Structures are written as SMILES. Numbers after ± are expanded uncertainties.

On to `O=C=O` [carbon dioxide], for which the Triple point temperature is 216.56 ± 0.5 K.
Then `CC(F)F` [1,1-difluoroethane], with 154.3 ± 0.5 K; and `[N-]=[N+]=O` [nitrous oxide], with 181.99 ± 0.5 K.

Values taken from the NIST ThermoML archive (doi:10.1021/je700384e).
